Legend:
Phosphodiesterase 4 [1] = biological target: T1, Phosphodiesterase 4 (Homo sapiens, UniProt P27815+Q08499+Q07343+Q08493); assay: Inhibition of rolipram binding to PDE4 from human neutrophils; assay type: protein assay
Homo sapiens = species: Homo sapiens; assay: Inhibition of TNF alpha synthesis in human monocytes; assay type: functional
Phosphodiesterase 4 [2] = biological target: T1, Phosphodiesterase 4; assay: Inhibition of Phosphodiesterase 4 from human neutrophils; assay type: protein assay
Phosphodiesterase 4 [3] = biological target: T1, Phosphodiesterase 4; assay: Inhibition of Phosphodiesterase 4 from human neutrophils at 10e-7 M; assay type: protein assay
Canis familiaris = assay: Emetic effect in dogs after intravenous dose; assay type: functional; conditions: Canis lupus familiaris
Rattus norvegicus = species: Rattus norvegicus; assay: Increased acid secretion in isolated whole rat stomach; assay type: functional

Structure (SMILES) | Ki (Phosphodiesterase 4 [1]) | IC50 (Homo sapiens) | IC50 (Phosphodiesterase 4 [2]) | inhibition (Phosphodiesterase 4 [3]) | IC50 (Rattus norvegicus) | ED50 (Canis familiaris)
FC(F)Oc1ccc2c(Cc3c(Cl)cncc3Cl)nncc2c1OC1CCCC1 | 46 nM | 167 nM | 39 nM | – | – | –
COc1ccc2c(Nc3c(Cl)cncc3Cl)nncc2c1OC1CCCC1 | 95 nM | 187 nM | 59 nM | – | – | –
COc1ccc2c(Cc3c(Cl)cncc3Cl)nncc2c1OCCCCCc1ccccc1 | 13 nM | 83 nM | 57 nM | – | – | –
COc1ccc2c(Cc3c(Cl)cncc3Cl)nncc2c1OC1Cc2ccccc2C1 | 16 nM | 252 nM | 30 nM | – | – | –
COc1ccc(C(=O)Nc2c(Cl)cncc2Cl)cc1OC1CCCC1 | – | 1.3 nM | – | – | 70 nM | 1 µmol/kg
COc1ccc2c(Cc3c(Cl)cncc3Cl)nncc2c1OC1CCOC1 (centres undefined) | 286 nM | – | 153 nM | – | – | –

Second part, led by results:

Ki (Phosphodiesterase 4 [1]) | IC50 (Homo sapiens) | IC50 (Phosphodiesterase 4 [2]) | inhibition (Phosphodiesterase 4 [3]) | IC50 (Rattus norvegicus) | Structure (SMILES) | ED50 (Canis familiaris)
121 nM | 139 nM | 42 nM | – | – | COc1ccc2c(Cc3c(Cl)cncc3Cl)n[n+]([O-])cc2c1OC1CCCC1 | –
– | – | – | 7% | – | COc1cc2cnnc(Nc3c(Cl)cncc3Cl)c2cc1OC1CCCC1 | –
71 nM | 30 nM | 10 nM | – | – | COc1ccc2c(Cc3c(Cl)cncc3Cl)nncc2c1C#CCCCc1ccccc1 | –
– | – | 186 nM | – | – | COc1cc2cnnc(Cc3c(Cl)cncc3Cl)c2cc1OC1CCCC1 | –
149 nM | 254 nM | 53 nM | – | 7000 nM | COc1ccc2c(Cc3c(Cl)cncc3Cl)nncc2c1OC1CCCC1 | > 10 µmol/kg
– | 225 nM | – | – | 40 nM | COc1ccc(C2CNC(=O)C2)cc1OC1CCCC1 (centres undefined) [ROLIPRAM] | 0.3 µmol/kg
164 nM | 52 nM | 19 nM | – | – | COc1ccc2c(Cc3c(Cl)cncc3Cl)nncc2c1/C=C/CCCc1ccccc1 | –
320 nM | 103 nM | 30 nM | – | – | COc1ccc2c(Cc3c(Cl)cncc3Cl)nncc2c1CCCCCc1ccccc1 | –
